Where two headings read alike, the source gives them in different places. Each block holds one substance with its values, some of them ahead of it.
How the values were obtained:
[1] = ITC; n = 8; ref Antolikova et al. (2011); listed as wild-type human insulin; read-out: K diss (dimer↔monomer); cited from earlier work
IR site 2 = details: ref Kiselyov et al., 2009; read-out: K d, IR low-affinity site 2; cited from earlier work
Excerpt: (§1) Extensive mutagenesis and cross-linking studies of both insulin and IR led to the discovery and mapping of two sites on the IR that are responsible for engaging with the hormone. […] The hormone–receptor interaction events are comp ...

IR-B = details: single mutation; ref Glendorf et al. (2011); cited from earlier work
Excerpt: The IR-B:IR-A specificity ratio of insulin analogues is of considerable interest owing to IR-B being the dominant (∼90–95%) receptor isoform in the liver (Moller et al., 1989[▶]). This, together with the anatomic proximity of the pancreas and the liver (short hepatic portal vein connectivity), makes the liver the major glucose homeostatic organ.

IR = details: ref Žáková et al., 2013; cited from earlier work
Excerpt: The full-length insulin B26-site mutants AsnB26, AspB26, PheB26, GlnB26 and GlyB26 have been prepared and characterized. […] In the cases of [PheB26]-insulin and [GlyB26]-insulin, we aimed to investigate the structural consequences of the loss of the TyrB26 side-chain hydroxyl group or the whole TyrB26 side chain, respectively. The affinities of the analogues for the IR-A isoform (IM-9 lymphocytes) and of selected ...

[2] = tested on: both rat IR-A and IR-B isoforms; experiment: Receptor binding, rat adipocyte plasma membranes
Description: Receptor-binding studies with the insulin receptor in plasma membranes containing both rat IR-A and IR-B isoforms prepared from epididymal adipose tissue of adult male Wistar rats were performed and analyzed according to Žáková et al. (2008[▶]). Binding data were analyzed using GraphPad Prism 5. Half-maximal inhibition values of binding of [^125I]-insulin to the receptor (IC50) were obtained using a nonlinear regression method and a one-site fitting program.

[3] = Isothermal microcalorimetry (ITC) of dimerization (dimer-monomer dissociation); assay type: physicochemical; details: mean ± spread, n = 3, read-out: K diss (dimer↔monomer)
Description: Investigations of the dimerization abilities of selected insulin analogues were performed as described in detail previously (Antolikova et al., 2011[▶]).

[4] = tested on: both rat IR-A and IR-B isoforms; details: rat adipocytes, ref Jiracek et al. (2010), cited from earlier work
Excerpt: In the cases of [PheB26]-insulin and [GlyB26]-insulin, we aimed to investigate the structural consequences of the loss of the TyrB26 side-chain hydroxyl group or the whole TyrB26 side chain, respectively. The affinities of the analogues for the IR-A isoform (IM-9 lymphocytes) and of selected ...

IR-A = details: ref Morcavallo et al., 2012; read-out: K d for IR-A; cited from earlier work
Excerpt: as §1

Substance: Human insulin
Kd [1]: ~9 µM
Kd (IR site 2): ~400 nM

Substance: [AsnB25]-insulin
IR-B specificity (IR-B): doubling of the IR-B specificity

Substance: [GluB26,LysB28,ProB29]-insulin
binding affinity relative to human insulin (IR): 193%

Potency (relative receptor-binding affinity), rat IR-A and IR-B ([2]; (IC50 of human insulin/IC50 of analogue) × 100, rat adipocytes): ~70%
IC50 ([2]; half-maximal inhibition of binding of human 125I-TyrA14 insulin, rat adipose plasma membranes, mean ± SE (n), SEM, read-out: IC50 ± SE for both rat IR-A and IR-B in rat adipocytes): 1.16 ± 0.12 nM
Substance: [GlyB26]-insulin

Kd [3]: 27.2 ± 7.4 µM
Substance: [PheB26]-insulin
Potency (relative receptor-binding affinity), rat IR-A and IR-B [4]: 46 ^¶ %
Potency (relative receptor-binding affinity), rat IR-A and IR-B ([4]; listed as PheB26): less than 50%

Substance: insulin-like growth factor II [IGF-II]
Kd (IR-A): ~4 nM

— paper PMC4188015 (Acta Crystallographica Section D: Biological Crystallography, 2014)
